{"source": "patent US9012483B2", "about": "“Use of L-Histidine and derivatives thereof” (priority 2011, dated 2015)", "key": {"[1]": {"experiment": "Pharmacokinetics of histidine in plasma after oral administration", "format": "in vivo, CD(SD)IGS BR rat", "conditions": "for Tmax / AUC(0-inf) / Cmax: male, CD(SD)IGS BR; for Tmax / AUC(0-inf) / Cmax / t1/2λz: rat plasma; for total plasma clearance: rat", "procedure": "Aliquots of L-Histidine dihydrochloride powder, accurately weighted, were transferred into 5 and 10 mL volumetric flasks. MilliQ-water was used to dissolve the powder. Standard solution was prepared to obtain CAL samples and CQ samples. The range of the stock standard solution was from 3.46 to 343 μg/mL. All standard solutions were stored at +4° C., in the dark: under these conditions they were considered stable for up to one month.\nCAL samples were prepared by using the standard solution at the concentration of 3.46, 34.3, 68.6, 173 and 343 μg/mL and QC samples by using the standard solution at the concentration of 14.3, 67.1, 143 and 268 μg/mL.\nCAL and QC samples were prepared by mixing 10 μL of Histidine standard solution with […] of blank rat plasma.\n(§1) To these samples 20 μL of trichloroacetic acid (16% w/v) were added to precipitate the plasma proteins. The tubes were vortexed for few seconds and centrifuged for 10 min at 2000 g at room temperature; to 90 μL of the clear supernatant 45 μL of a soaked solution of Sodium carbonate (200 mM) and 90 μL of derivatizing solution (4 mg/mL of Dansyl chloride) were added. The tubes were vortexed for few seconds and incubated under stirring for 30 minutes at 60° C. Five microliters of Methylamine Hydrochloride were added and after cooling for 15 minutes, ten microliters of the sample were injected into the HPLC equipment.\nas §1, with “Test plasma samples (S) were prepared by adding 10 μL of Milli-Q water to 90 μL of undiluted plasma or 90 μL of plasma suitably diluted with blank plasma (if sample volume was not enough). To” for “To”, “equipment. All plasma samples collected during the study were stored at −20° C. until analysis.” for “equipment.”\n• Species and strain: CD(SD)IGS BR rat • sex of animals: males • Weight and age at treatment: 306-376 g (10-14 weeks old) • Supplier: Charles River Laboratories, Calco (LC), Italy\n(§2) Rats were used to determine the pharmacokinetic parameters after administration of three different histidine doses (100, 500 and 1000 mg/kg, three animals for each group).\nPlasma concentrations of Histidine as a function of time after injection C(t), were analyzed by non-parametric methods using the computer program WIN-NONLIN 4.0.1. For the tested doses, a non-compartmental analysis was performed using the average plasma concentrations from 3 animals for each time point (except when indicated). For Cmax (peak plasma concentration) and the corresponding tmax ([…]) the observed values were reported. The terminal phase elimination rate constant (λz) was estimated by log-linear regression of those data points visually assessed to be in the terminal phase of the profile. At least three terminal plasma concentrations were used for estimating λz. The terminal elimination half life (t ½ λz, time required for a drug to decline to half of its original plasma value) was calculated as t ½ λz=In 2/λz. Area under the plasma concentration-time curve to the last observable plasma concentration (AUC(0 to t)) was calculated from observed data using the logarithmic trapezoidal method. Total area under the plasma concentration-time curve from zero to infinity (AUC(0 to ∞)) was estimated by AUC(0 to ∞) =AUC(0 to t) +ct/λz, where ct is the predicted concentration at the last quantified time point. AUC defines extent of drug exposure."}, "Gd(DTPA-BMA)": {"system": "Gd(DTPA-BMA)", "experiment": "Dissociation of Gd(DTPA-BMA) in artificial plasma, relaxivity at 20 MHz", "format": "physicochemical", "conditions": "pH 7.5, 37° C."}, "[2]": {"conditions": "for changes in Gd^3+ content in liver and spleen: versus group 1; for % ID in femour, mean / Gadolinium content in femour, mean: p < 0.01 vs group 1; for Gadolinium content in skin, mean: p < 0.05 vs group 1", "description": "L-Histidine was orally administered by gavage, while Omniscan® was intravenously administered.\nOn the day of scheduled sacrifice, animals were anesthetized with an inhalation agent, sevoflurane, at an respiratory concentration of 3% in induction and 1-2% in maintenance and bled after collection of blood from the abdominal aorta. After exsanguination, liver, spleen, femur and skin of all animals were excised, weighed and prepared for ICP-MS determination of gadolinium content. Sample digestion (spleen and femur) was performed by a microwave system (MARS-5 CEM Corporation).\nLiver and skin samples were freeze-dried with a lyophilizer (Alpha-1-2LD Plus, CHRIST) after being frozen at −80° C. for at least 1 h. After drying, dehydrated livers were weighed and then ground in a mortar.\nGadolinium content in organs was reported as μg of Gd."}, "[3]": {"conditions": "rat, oral histidine 4.38 mmol/kg and iv Omniscan 1 mmol/kg"}, "[4]": {"conditions": "cited from earlier work"}, "[5]": {"experiment": "Clinical signs in the pharmacokinetic study after oral histidine", "format": "in vivo, CD(SD)IGS BR rat", "conditions": "rat, up to 1000 mg/kg", "procedure": "as §2"}, "[6]": {"conditions": "cited from earlier work", "remark": "listed apart in the source"}, "[7]": {"system": "Gd(DTPA-BMA) and Gd(DTPA) complexes with Cu(II)", "experiment": "Kinetics of transmetallation of Gd(DTPA) and Gd(DTPA-BMA) with Cu(II) in the presence of citrate and histidine (spectrophotometry, 300 nm)", "format": "physicochemical", "conditions": "[GdL]=2.0 mM, [Cu]=0.1 mM, [cit]=2.0 mM, [His]=0.2-0.8 mM, pH 7.0, 25° C., 0.15 M NaCl", "procedure": "In order to have some clues on the kinetics of a possible transmetallation reactions in the presence of citrate (an important counter-ion present in plasma and found to be highly interactive with Gd^3+) and increasing amounts of histidine, the rates of the following reactions have been studied: GdL+Cu^2++His+cit⇄CuL+Gd(cit)+His (1)\nIn the experiment, the concentration used for Gd^3+ complex (GdL), citrate and Cu^2+ were: 2.0, 2.0 and 0.1 mM, respectively, while the concentration of His was varied (0.2, 0.4, 0.6 and 0.8 mM).\nThe progress of the exchange reactions (1) has been studied by spectrophotometry (Cary 1E spectrophotometer) at 300 nm, with the use of 1.0 cm quartz cell at 25° C. in 0.15 M NaCl in the pH range 6-8. […]"}, "Cu(His)2": {"system": "Cu(His)2", "experiment": "Exchange reaction between Gd(DTPA-BMA) and Cu(His)2 without and with citrate (UV spectrum)", "format": "physicochemical", "conditions": "Cu(His)2 0.2 mM, Gd(DTPA-BMA) 2.0 mM, pH 6.5, 25° C., 0.15 M NaCl", "procedure": "FIG. 3. The UV spectrum of Cu(His)2 in the presence of Gd(DTPA-BMA) excess (Panel A) and in the presence of citrate and Gd(DTPA-BMA) excess (Panel B). (Cu(His)2=0.2 mM, Gd(DTPA-BMA)=2.0 mM) (A). (Cu(His)2=0.2 mM, Gd(DTPA-BMA)=2.0 mM, Citrate=2.0 mM) (B). pH=6.5, 25° C., 0.15 M NaCl.\nIt is possible to conclude that in body fluids transmetallation reactions may take place between the DTPA-derivative Gd^3+ complexes and endogenous metal ions, like Cu^2+ and Zn^2+. The possibility of the transmetallation reactions can be predicted on the basis of the stability constants of complexes formed between the most important endogenous metals and ligands. The stability constants have been determined for the Gd^3+, Cu^2+ and Zn^2+ complexes of the DTPA, DTPA-BMA, citrate and histidine ligands. […] The species distribution calculations have been experimentally verified by following the exchange reactions between Gd(DTPA-BMA) and Cu(His)2 in the absence and presence of citrate."}, "[8]": {"conditions": "group 2, histidine pretreatment at 30 min"}, "[9]": {"conditions": "group 2: oral histidine 4.38 mmol/kg 30 min before Omniscan 1 mmol/kg iv, 24 h"}, "[10]": {"conditions": "group 2: oral histidine 4.38 mmol/kg 30 min before Omniscan 1 mmol/kg iv, 24 h, listed as Histidine"}, "[11]": {"conditions": "group 2: oral histidine 4.38 mmol/kg 30 min before Omniscan 1 mmol/kg iv, 24 h, listed as histidine"}, "[12]": {"conditions": "histidine 30 min before Omniscan versus no histidine pretreatment"}}, "note": "“Also recorded” adds a separate entry of the source. Where two headings read alike, the source gives them in different places. Marks after values point to notes of the source that are not given here."}
{"smiles": "N[C@@H](Cc1c[nH]cn1)C(=O)O", "note": "[L-Histidine]", "values": [{"measurement": "Tmax", "setting": "[1]; 100 mg/kg", "result": 0.5, "unit": "h"}, {"measurement": "Tmax", "setting": "[1]; 1000 mg/kg", "result": 0.5, "unit": "h"}, {"measurement": "AUC(0-inf)", "setting": "[1]; Histidine 100 mg/kg", "result": 550, "unit": "µg·h/mL"}, {"measurement": "Cmax", "setting": "[1]; Histidine 100 mg/kg (0.438 mmol/kg)", "result": 9000, "unit": "ng/mL"}, {"measurement": "AUC(0-inf)", "setting": "[1]; Histidine 500 mg/kg", "result": 630, "unit": "µg·h/mL"}, {"measurement": "Tmax", "setting": "[1]; Histidine 500 mg/kg", "result": 1, "unit": "h"}, {"measurement": "Cmax", "setting": "[1]; Histidine 500 mg/kg (2.192 mmol/kg)", "result": 20900, "unit": "ng/mL"}, {"measurement": "AUC(0-inf)", "setting": "[1]; Histidine 1000 mg/kg", "result": 390, "unit": "µg·h/mL"}, {"measurement": "Cmax", "setting": "[1]; Histidine 1000 mg/kg (4.38 mmol/kg)", "result": 36000, "unit": "ng/mL"}, {"measurement": "t1/2λz", "setting": "[1]; Histidine 100 mg/kg (Table A)", "result": 51, "unit": "h"}, {"measurement": "t1/2λz", "setting": "[1]; Histidine 500 mg/kg (Table A)", "result": 47, "unit": "h"}, {"measurement": "t1/2λz", "setting": "[1]; Histidine 1000 mg/kg (Table A)", "result": 13, "unit": "h"}, {"measurement": "total plasma clearance", "setting": "[1]; 100 mg/kg", "result": 3, "unit": "mL/min/kg"}, {"measurement": "total plasma clearance", "setting": "[1]; 500 mg/kg", "result": 13.2, "unit": "mL/min/kg"}, {"measurement": "total plasma clearance", "setting": "[1]; 1000 mg/kg", "result": 42.7, "unit": "mL/min/kg"}, {"measurement": "effect on the increase of relaxivity / extent of dissociation of Gd(DTPA-BMA)", "setting": "Gd(DTPA-BMA); histidine 0.5 mM and 1.0 mM added to artificial plasma with 1.0 mM Gd(DTPA-BMA)", "result": "concentration dependent drop in the increase of the relaxivity values; also recorded: significantly decreases"}, {"measurement": "% ID in liver, spleen and skin versus group 1", "setting": "[2]; [8]", "result": "not significantly different"}, {"measurement": "changes in Gd^3+ content in liver and spleen", "setting": "[2]; [8]", "result": "no significant changes"}, {"measurement": "% ID in liver, mean", "setting": "[2]; [9]", "result": 0.1094, "unit": "% ID"}, {"measurement": "% ID in skin, mean", "setting": "[2]; [9]", "result": 0.0067, "unit": "% ID"}, {"measurement": "% ID in spleen, mean", "setting": "[2]; [9]", "result": 0.00478, "unit": "% ID"}, {"measurement": "Gadolinium content in liver, mean", "setting": "[2]; [9]", "result": "20.7 nmol/g of tissue"}, {"measurement": "Gadolinium content in spleen, mean", "setting": "[2]; [9]", "result": "20.0 nmol/g of tissue"}, {"measurement": "% ID in femour, mean", "setting": "[2]; [10]", "result": "0.00166** % ID"}, {"measurement": "Gadolinium content in femour, mean", "setting": "[2]; [10]", "result": "6.90** nmol/g of tissue"}, {"measurement": "% ID in femour, mean", "setting": "[2]; [11]", "result": 0.00166, "unit": "% ID"}, {"measurement": "Gadolinium content in femour, mean", "setting": "[2]; [11]", "result": "6.90 nmol/g of tissue"}, {"measurement": "Gadolinium content in skin, mean", "setting": "[2]; [10]", "result": "11.25* nmol/g of tissue"}, {"measurement": "Gadolinium content in skin, mean", "setting": "[2]; [11]", "result": "11.25 nmol/g of tissue"}, {"measurement": "changes in Gd^3+ content in liver and spleen", "setting": "[2]; group 3, histidine pretreatment at 1 h", "result": "no significant changes"}, {"measurement": "decrease in Gd^3+ content in femur (nmol/g tissue)", "setting": "[2]; [12]", "result": "about 40%"}, {"measurement": "decrease of % ID in femour", "setting": "[2]; [12]", "result": "about 40%"}, {"measurement": "effect on Gd^3+ accumulation", "setting": "[2]; histidine treatment 60 min before Omniscan administration", "result": "didn't show, in this model, any effect"}, {"measurement": "mortality and clinical signs", "setting": "[3]", "result": "No mortalities nor changes in clinical signs"}, {"measurement": "time to peak levels after oral administration", "setting": "[4]; L-Histidine in the salt form (HCl), oral route", "result": "30 to 45", "unit": "min"}, {"measurement": "AUC(0 to ∞)", "setting": "[4]; healthy volunteers, single oral administration of Histidine at 100 mg/kg", "result": 477, "unit": "µg·h/mL"}, {"measurement": "clinical signs", "setting": "[5]", "result": "No clinical signs were observed"}, {"measurement": "serum parameters including protein bound zinc, serum and urinary zinc levels", "setting": "[6]; human subjects, L-histidine up to 4 g/day, 15-days treatment", "result": "not shown to be grossly altered"}, {"measurement": "adverse effects", "setting": "[6]; humans, oral, up to 4-6 g/day for several days", "result": "neither important adverse effects nor minor inconveniences"}, {"measurement": "extent (conversion) of the transmetallation reactions, CuL formed", "setting": "[7]; listed as Histidine", "result": "decrease"}, {"measurement": "rates of the transmetallation reactions", "setting": "[7]; listed as Histidine", "result": "decrease"}, {"measurement": "extent (conversion) of the transmetallation reactions, CuL formed", "setting": "[7]; listed as histidine", "result": "significantly decrease; also recorded: decrease with increasing concentration of histidine"}, {"measurement": "rates of the transmetallation reactions", "setting": "[7]; listed as histidine", "result": "significantly decrease; also recorded: decrease with increasing concentration of histidine"}]}
{"smiles": "CNC(=O)CN(CCN(CCN(CC(=O)[O-])CC(=O)NC)CC(=O)[O-])CC(=O)[O-].[Gd+3]", "note": "[Omniscan ®, Gadodiamide]", "values": [{"measurement": "relaxivity values as a function of time (dissociation of the complex)", "setting": "Gd(DTPA-BMA); 1.0 mM Gd(DTPA-BMA) in artificial plasma, no added histidine", "result": "relaxivity values increase as a function of time"}, {"measurement": "changes of the UV spectrum of Cu(His)2 (transmetallation)", "setting": "Cu(His)2; citrate 2.0 mM", "result": "the transmetallation reaction takes place"}, {"measurement": "changes of the UV spectrum of Cu(His)2 (transmetallation)", "setting": "Cu(His)2; no citrate", "result": "no changes"}]}
